Broadly, the IC50 is the midpoint of a concentration-inhibition curve.

Here are results for eight molecules from article PMC4802308, “Integrating computational and chemical biology tools in the discovery of antiangiogenic small molecule ligands of FGF2 derived from endogenous inhibitors” (Scientific Reports, 2016).

Test [1] has as its system FGF2 mitogenic activity. On the set-up: method as in PMID 12676958. Particulars: read-out: IC50, inhibition of FGF2 mitogenic activity; cited from earlier work.
For test [2], the system named is BAEC. Put plainly: FGF2-induced endothelial cell proliferation assay. The format is cell-based, Bovine. Particulars: FGF2 5 ng/ml, 72 h. The procedure: (§1) Figure 4 Biological activity of the selected hits. (A) Endothelial cell proliferation. BAEC were exposed to FGF2 (5 ng/ml) with increasing concentrations of molecules (3–80 μM). After 72 h, cells were stained and proliferation measured as absorbance. Data are the percentage of control proliferation (in absence of molecules), mean of value from 2 experiments performed in triplicate. (B–D) Aortic ring assay. Sections of murine aortas were embedded in Matrigel, in the presence of FGF2 (30 ng/ml) and the indicated small molecule. The formation of capillary structures sprouting from the rings was analyzed after 7 and 11 days as described in Methods, and the angiogenic response expressed as area covered by the sprouting structures (arbitrary units, mean and SE, n ≥ 6). (B) Antiangiogenic activity of the small molecules (100 μM). (C) Examples of time-dependent and dose-dependent effect of two compounds (SM.2–20 and SM.2–23), tested at 100 (diamond), 50 (circle) and 25 μM (triangle) compared to control (black squares). (D) Representative pictures of sprouting from control and SM.2–23 treated aortic sections. […] (E) Angiogenic response is evaluated 4 days later, and expressed as number of vessels entering the sponge (mean and SD). […]
BAEC (2500 cells/well) were plated in 96-well plates in DMEM 1.5% FCS. […] Plates were then stained with crystal violet or MTS and analyzed as described.

Test [3] concerns the target T1, FGF2 (Homo sapiens, UniProt P09038, A3E/C211S/C229S/S5E).
T1 construct: purchased ASLA (Riga, Latvia)
As to the kind of experiment: NMR titration (1H-15N HSQC) of 15N-labeled FGF2. In kind it is binding. The following applies: pH 5.5, 25 °C. The procedure:
In order to investigate whether the functionalized phenylamino-substituted naphthalenes maintained the ability of TSP-1 and SM27 to target the heparin interaction site of FGF2[16][21], interaction studies between SM.1–31 or SM.1–34 (showing the highest activity) and FGF2 were performed by NMR. Each SM was titrated into a solution of ^15N-enriched FGF2 protein and a series of 2D ^1H^15N-HSQC experiments were recorded to follow the protein changes induced by the ligand. […] Residues showing the highest perturbations are Arg129 and Lys144, as previously observed for SM27, pointing to similar interactions that likely involve inhibitors SO3 groups.
NMR samples contained 0.57 mM ^15N-labeled FGF2, dissolved in a buffer containing 50 mM potassium phosphate, 2 mM NaN3, and 10 mM deuterated DTT in 90% H2O/10% D2O, pH 5.5. For the identification of the binding region, SM.1–34 and SM.1–31 were incrementally added to protein solutions up to SM:FGF2 stoichiometric ratio of 3. NMR data were collected on a Bruker DMX 500 MHz spectrometer at 25 °C. 2D ^1H-^15N HSQC spectra were recorded with a sweep width of 13 ppm (^1H) and 40 ppm (^15N). 1k × 128 data points were used in proton and nitrogen dimensions, respectively. Data, acquired and processed using Topspin (Bruker Biospin), were apodized with a squared sinebell shifted by 90° and polynomial baseline correction. […]

Test [4] has as its target T2, FGF2 (Homo sapiens, UniProt P09038).
T2 construct: purchased R&D Systems, obtained through the NCI-Biological Resources Branch
As to the kind of experiment: Competition with biotinylated recombinant TSP-1 domain (E123CaG1) for binding to FGF2 (DELFIA). The following applies: for ability to bind FGF2 in the competition assay (phenylamino-substituted naphthalenes): Fig. 6B; for prevention of FGF2/TSP-1 binding (first screening): 5 μM. The text has this: Of the identified hits, 23 (Fig. 1 and Suppl. Table S1), made available from the NCI (NIH), were subjected to experimental analysis of FGF2 binding. We used an indirect assay, based on the competition of the tested molecules with the recombinant TSP-1 type III domain for binding to FGF2, an approach previously employed to analyze the FGF2/SM27 binding.
Figure 2 FGF2-binding property of the selected hits, analyzed with an indirect assay, as ability to compete with the TSP-1 fragment E123CaG1 (comprising the type III repeats domain) for FGF2 binding, as described in Methods. Binding of the biotinylated recombinant domain to FGF2 in the presence or absence of each molecule (5 μM). Data are the percentage of control binding, mean and SE of 3 experiments performed in triplicate. *p < 0.05 compared to control (ANOVA followed by Bonferroni test).
DELFIA® Microtitration plates and reagents were from PerkinElmer. Plates were coated overnight at 4 °C with FGF2 (0.1 μg in 40 μl /well PBS). After washing, non-specific binding sites were saturated by a 30 minute incubation with PBS 1% BSA. The biotin-labeled recombinant TSP-1 fragment (10 nM) was added in 40 μl PBS 1% BSA with or without the indicated concentration of small molecules, and incubated for 3 h at room temperature. The plates were washed with PBS 0.1% BSA and incubated for 1 h with 100 μl/well Eu-Labeled Streptavidin 1:1000 at room temperature. After washing, plates were incubated with DELFIA® Enhancement Solution. Time resolved fluorescence was measured using a Victor[3] multilabel plate reader (PerkinElmer).

Test [5] concerns FGF2-induced angiogenesis. Put plainly: Chorioallantoic membrane (CAM) assay. Particulars: FGF2 200 ng, compound 0.5 μg. The format is in vivo, White Leghorn chicken. The procedure: as §1, with “μM).” for “μM). (C) Examples of time-dependent and dose-dependent effect of two compounds (SM.2–20 and SM.2–23), tested at 100 (diamond), 50 (circle) and 25 μM (triangle) compared to control (black squares). (D) Representative pictures of sprouting from control and SM.2–23 treated aortic sections.”
Fertilized White Leghorn chicken eggs were incubated at 37 °C at constant humidity. […] At day 12, CAMs were photographed in ovo under a stereomicroscope (Olympus), and blood vessels entering the sponge within the focal plane of the CAM were counted by two observers in double blind.

Test [6] addresses T2, FGF2. As to the kind of experiment: Competition with biotinylated recombinant TSP-1 domain (E123CaG1) for binding to FGF2 (DELFIA). Particulars: for IC50: mean ± SE of 3 experiments; for fold more active than the initial query SM27 (competition IC50): vs SM27.
For test [7], the system named is FGF2-induced vessels sprouting, murine aortic rings. As to the kind of experiment: Aortic rings assay (FGF2-induced vessels sprouting, 3D Matrigel). The following applies: FGF2 30 ng/ml, small molecules 100 μM. Also on record: species or system C57BL/6 mice. How it is done: Figure 4 Biological activity of the selected hits. (A) Endothelial cell proliferation. BAEC were exposed to FGF2 (5 ng/ml) with increasing concentrations of molecules (3–80 μM). After 72 h, cells were stained and proliferation measured as absorbance. Data are the percentage of control proliferation (in absence of molecules), mean of value from 2 experiments performed in triplicate. (B–D) Aortic ring assay. Sections of murine aortas were embedded in Matrigel, in the presence of FGF2 (30 ng/ml) and the indicated small molecule. The formation of capillary structures sprouting from the rings was analyzed after 7 and 11 days as described in Methods, and the angiogenic response expressed as area covered by the sprouting structures (arbitrary units, mean and SE, n ≥ 6). (B) Antiangiogenic activity of the small molecules (100 μM). (C) Examples of time-dependent and dose-dependent effect of two compounds (SM.2–20 and SM.2–23), tested at 100 (diamond), 50 (circle) and 25 μM (triangle) compared to control (black squares). (D) Representative pictures of sprouting from control and SM.2–23 treated aortic sections. Original magnification, 20x. (E,F) Chorioallantoic membrane assay. FGF2 (200 ng) was administered in the absence or presence of the indicated compound (0.5 μg) on day 8 (n = 10). (E) Angiogenic response is evaluated 4 days later, and expressed as number of vessels entering the sponge (mean and SD). (F) Representative pictures are shown. Original magnification, 50x.
Thoracic aortas were removed from mice, cleaned of perivascular adipose tissue and cut into 1 mm segments. Matrigel (75 μl, BD Biosciences) was added to 96 well plates, and allowed to gellify at 37 °C for 30 min. Aortic sections were added to the wells, and covered with a second layer of Matrigel and DMEM 5% FCS containing FGF2 (30 ng/ml) and the indicated concentration of the compounds. The formation of capillary structures sprouting from the rings was analyzed after 4, 7 and 11 days with an inverted-phase contrast microscope (IX70; Olympus). Images were analyzed with ImageJ 1.48, and the angiogenic response expressed as area covered by the sprouting structures (arbitrary units), substracted the area of the aortic section.

For test [8], the target named is T2, FGF2. Put plainly: SPR direct binding to sensorchip-immobilized FGF2. Particulars: single site model, one experiment representative of two, read-out: Kd (dissociation constant) of FGF2/compound interaction. The procedure:
SPR measurements were performed on a BIAcore X100 instrument (GE-Healthcare, WI). FGF2 was immobilized on a CM5 sensorchip (GE-Healthcare) as described, allowing the immobilization of 7,365 resonance units (RU) (410 fmol/mm^2 of FGF-2).
Suppl. Table S2. Determination of the affinity (Kd) of the FGF2/compound interactions by
Binding parameters were calculated by the non-linear curve fitting software package BIAevaluation
3.2 using a single site model with correction for mass transfer. Dissociation constant (Kd) values
were derived from the dissociation rate/association ratio. Only sensorgrams whose fitting gave
values of X2 lower than 10 were used {Khalifa, 2001 #213}.

T2 sequence (P09038 134-288 limits assumed): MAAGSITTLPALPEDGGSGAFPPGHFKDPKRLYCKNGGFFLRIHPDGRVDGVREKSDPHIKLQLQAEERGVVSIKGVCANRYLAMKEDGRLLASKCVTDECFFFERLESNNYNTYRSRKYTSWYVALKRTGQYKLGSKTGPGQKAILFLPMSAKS
T1 sequence (P09038 with tags, fused parts or gaps isoform P09038-2 C78S/C96S limits assumed): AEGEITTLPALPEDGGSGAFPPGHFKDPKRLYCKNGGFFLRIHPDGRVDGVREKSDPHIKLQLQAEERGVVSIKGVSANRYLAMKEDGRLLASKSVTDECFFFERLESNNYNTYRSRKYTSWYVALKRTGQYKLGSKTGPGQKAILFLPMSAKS

Consider `Nc1cccc2cc(S(=O)(=O)O)ccc12` [5-amino-2-naphthalenesulfonate], for which, in test [1], the half-inhibitory concentration (IC50) is 265000 nM.

For the molecule `O=S(=O)([O-])c1cccc2cc(Nc3ccccc3)ccc12.[Na+]` [SM.1–31, sodium 6-(phenylamino)naphthalene-1-sulfonate], in test [2], the “inhibition of FGF2-induced endothelial cell proliferation (antiproliferative activity)” value is on record as “increased activity”. Further, the “affinity for FGF2 indicated by NMR titration” value in test [3] is “high micromolar range”. Moreover, in test [4], the “ability to bind FGF2 in the competition assay (phenylamino-substituted naphthalenes)” value (from here on “ability to bind FGF2”) is “most active”.

On to `Oc1cccc2ccc(Nc3ccccc3)cc12` [SM.1–33, 8-hydroxy-N-phenylanaphthalen-2-aminium chloride], for which the “inhibition of FGF2-induced endothelial cell proliferation (antiproliferative activity)” value in test [2] is “significant loss of activity”. The “ability to bind FGF2” value in test [4] was “inactive”.

Regarding `O=S(=O)([O-])c1cc(S(=O)(=O)[O-])c2ccc(Nc3ccccc3)cc2c1O.[Na+].[Na+]` [SM.1–34, sodium 4-hydroxy-6-(phenylamino)naphthalene-1,3-disulfonate], the “affinity for FGF2 indicated by NMR titration” value in test [3] is reported as “high micromolar range”. The “ability to bind FGF2” value in test [4] is listed as “most active”.

On to `O=C(Nc1ccc2cc(S(=O)(=O)O)cc(S(=O)(=O)O)c2c1)Nc1ccc2cc(S(=O)(=O)O)cc(S(=O)(=O)O)c2c1` [SM.2–11, 7,7'-(carbonylbis(azanediyl))bis(naphthalene-1,3-disulfonic acid)], for which, in test [4], the “prevention of FGF2/TSP-1 binding (first screening)” value is given as “lost”.

Take `O=C(Nc1ccc2c(O)c(/N=N/c3ccccc3)c(S(=O)(=O)O)cc2c1)Nc1ccc2c(O)c(/N=N/c3ccccc3)c(S(=O)(=O)O)cc2c1` [SM.2–12, 4-hydroxy-7-(3-(5-hydroxy-6-((E)-phenyldiazenyl)-7-sulfonaphthalen-2-yl)ureido)-3-((E)-phenyldiazenyl)naphthalene-2-sulfonic acid]: the “prevention of FGF2/TSP-1 binding (first screening)” value in test [4] is on record as “reduced activity”.

For `Nc1cccc(/N=N/c2c(S(=O)(=O)O)cc3cc(NC(=O)Nc4ccc5c(O)c(/N=N/c6cccc(N)c6)c(S(=O)(=O)O)cc5c4)ccc3c2O)c1` [SM.2–18, 3-((E)-(3-aminophenyl)diazenyl)-7-(3-(6-((E)-(3-aminophenyl)diazenyl)-5-hydroxy-7-sulfonaphthalen-2-yl)ureido)-4-hydroxynaphthalene-2-sulfonic acid], the “inhibition of FGF2-induced angiogenesis in the CAM assay” value in test [5] is listed as “active”. In test [6], the half-maximal inhibitory concentration (IC50) is 610 ± 60 nM and the “fold more active than the initial query SM27 (competition IC50)” value is given as 6–11 fold.

`Cc1ccc(C)c(/N=N/c2c(S(=O)(=O)O)cc3cc(NC(=O)Nc4ccc5c(O)c(/N=N/c6ccc7cc(S(=O)(=O)O)ccc7c6)c(S(=O)(=O)O)cc5c4)ccc3c2O)c1` [SM.2–24, 3-((E)-(2,5-dimethylphenyl)diazenyl)-4-hydroxy-7-(3-(5-hydroxy-7-sulfo-6-((E)-(6-sulfonaphthalen-2-yl)diazenyl)naphthalen-2-yl)ureido)naphthalene-2-sulfonic acid]: the “inhibition of FGF2-induced angiogenesis in the CAM assay” value in test [5] is given as “active”. Also, the “inhibition of FGF2-induced vessels sprouting” value in test [7] was “significantly inhibited”. In test [6], the IC50 was determined as 460 ± 100 nM and the “fold more active than the initial query SM27 (competition IC50)” value is reported as 6–11 fold. Also, the Kd in test [8] came out at 111 nM.
